PubChem BioAssay AID248 (DTP/NCI, 2004)
Several values for one entry are separate records, joined by “and”; a condition that tells them apart may be missing. Identical values can stand only once. Toxic doses and inconclusive results are not listed. Rule as the data show it: active = T/C of 150% or more; inactive = T/C below 125%.

Test system: L1210 leukemia ip in BDF1 mice, survival T/C
Experiment: NCI In Vivo Anticancer Drug Screen. Data for tumor model L1210 Leukemia (intraperitoneal) in B6D2F1 (BDF1) mice
Settings: endpoint: mean survival time, higher = longer survival
Outline: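 Tumor cells were implanted, animals were treated, and survival was followed. The result divides the treated measurement by the vehicle-control measurement.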

[1] = dose: 100.0 mg/kg/injection, schedule: Q04DX002 (ip), vehicle: Klucel (hydroxypropylcellulose) (HPC)
[2] = dose: 200.0 mg/kg/injection, schedule: Q04DX002 (ip), vehicle: Klucel (hydroxypropylcellulose) (HPC)
[3] = dose: 100.0 mg/kg/injection, schedule: Q01DX009 (ip), vehicle: saline with Tween-80
[4] = dose: 100.0 mg/kg/injection, schedule: Q01DX009 (ip), vehicle: water
[5] = dose: 200.0 mg/kg/injection, schedule: Q01DX009 (ip), vehicle: water
[6] = dose: 400.0 mg/kg/injection, schedule: Q01DX009 (ip), vehicle: water
[7] = dose: 100.0 mg/kg/injection, schedule: Q04DX003 (ip), vehicle: saline with Tween-80
[8] = dose: 200.0 mg/kg/injection, schedule: Q04DX003 (ip), vehicle: saline with Tween-80
[9] = dose: 400.0 mg/kg/injection, schedule: Q04DX003 (ip), vehicle: saline with Tween-80
[10] = dose: 25.0 mg/kg/injection, schedule: Q01DX009 (ip), vehicle: saline
[11] = dose: 50.0 mg/kg/injection, schedule: Q01DX009 (ip), vehicle: saline
[12] = dose: 100.0 mg/kg/injection, schedule: Q01DX009 (ip), vehicle: saline
[13] = dose: 100.0 mg/kg/injection, schedule: Q04DX002 (ip), vehicle: saline
[14] = dose: 100.0 mg/kg/injection, schedule: Q01DX001 (ip), vehicle: saline
[15] = dose: 200.0 mg/kg/injection, schedule: Q01DX001 (ip), vehicle: saline
[16] = dose: 200.0 mg/kg/injection, schedule: Q01DX009 (ip), vehicle: saline
[17] = dose: 400.0 mg/kg/injection, schedule: Q01DX001 (ip), vehicle: saline
[18] = dose: 100.0 mg/kg/injection, schedule: Q04DX003 (ip), vehicle: saline
[19] = dose: 200.0 mg/kg/injection, schedule: Q04DX003 (ip), vehicle: saline
[20] = dose: 200.0 mg/kg/injection, schedule: Q01DX009 (ip), vehicle: saline with Tween-80
[21] = dose: 400.0 mg/kg/injection, schedule: Q01DX009 (ip), vehicle: saline with Tween-80

Measured: T/C

O=C(O)c1cc(Br)c(OCc2ccccc2)c(Br)c1
inactive: dose: 100.0 mg/kg/injection, schedule: Q01DX001 (ip), vehicle: saline with Tween-80 101 % of control | dose: 200.0 mg/kg/injection, schedule: Q01DX001 (ip), vehicle: saline with Tween-80 104 % of control | dose: 400.0 mg/kg/injection, schedule: Q01DX001 (ip), vehicle: saline with Tween-80 104 % of control

CN(C)C(=N)CSS(=O)(=O)O
inactive: [1] 90 % of control | [2] 101 % of control

CC(=O)n1cc(/C=C2\N=C(c3ccccc3)OC2=O)c2ccccc21
inactive: dose: 100.0 mg/kg/injection, schedule: Q01DX009 (ip), vehicle: Klucel (hydroxypropylcellulose) (HPC) 94 % of control | dose: 200.0 mg/kg/injection, schedule: Q01DX009 (ip), vehicle: Klucel (hydroxypropylcellulose) (HPC) 96 % of control | dose: 400.0 mg/kg/injection, schedule: Q01DX009 (ip), vehicle: Klucel (hydroxypropylcellulose) (HPC) 94 % of control

O=C(CSSCC(=O)Nc1ccccc1O)Nc1ccccc1O
inactive: dose: 100.0 mg/kg/injection, schedule: Q01DX001 (ip), vehicle: other 88 % of control | dose: 200.0 mg/kg/injection, schedule: Q01DX001 (ip), vehicle: other 93 % of control | dose: 400.0 mg/kg/injection, schedule: Q01DX001 (ip), vehicle: other 89 % of control

COc1ccccc1C1CCCC2C(Oc3ccc([N+](=O)[O-])cc3)OC12 (stereo not drawn)
inactive: dose: 50.0 mg/kg/injection, schedule: Q01DX009 (ip), vehicle: saline with Tween-80 87 % of control | [3] 100 % of control

Cc1[nH]c(=O)[nH]c(=O)c1NCCO
inactive: [4] 91 % of control | dose: 100.0 mg/kg/injection, schedule: Q04DX003 (ip), vehicle: water 101 % of control | [5] 96 % of control | dose: 200.0 mg/kg/injection, schedule: Q04DX003 (ip), vehicle: water 103 % of control | [6] 102 % of control | dose: 400.0 mg/kg/injection, schedule: Q04DX003 (ip), vehicle: water 103 % of control

Oc1cccc2c1ccc1ccc3ccccc3c12
inactive: [7] 92 % of control | [8] 95 % of control | [9] 90 % of control

CC(C)Oc1ccc2ccccc2c1
inactive: dose: 12.5 mg/kg/injection, schedule: Q04DX003 (ip), vehicle: acetone 94 % of control | dose: 25.0 mg/kg/injection, schedule: Q04DX003 (ip), vehicle: acetone 93 % of control | dose: 50.0 mg/kg/injection, schedule: Q04DX003 (ip), vehicle: acetone 93 % of control

O=[N+]([O-])C1(CO)COC(c2ccccc2)OC1 (stereo not drawn)
inactive: [4] 91 % of control | [7] 111 % of control | [5] 98 % of control | [8] 108 % of control | [6] 92 % of control | [9] 95 % of control

CCCCCCC(C)N(CC)CCOC(=O)c1ccc(N)cc1 (stereo not drawn)
inactive: dose: 75.0 mg/kg/injection, schedule: Q01DX001 (ip), vehicle: other 94 % of control | dose: 150.0 mg/kg/injection, schedule: Q01DX001 (ip), vehicle: other 98 % of control

Oc1ccccc1/C=N/Sc1ccccc1.Oc1ccccc1/C=N/Sc1ccccc1.[Ni+2]
inactive: [1] 94 % of control | [2] 94 % of control | dose: 400.0 mg/kg/injection, schedule: Q04DX002 (ip), vehicle: Klucel (hydroxypropylcellulose) (HPC) 105 % of control

CCOc1ccc(/C=N/N=C(N)N)cc1OCC
inactive: dose: 62.5 mg/kg/injection, schedule: Q01DX Z (oral), vehicle: saline 110 % of control | dose: 125.0 mg/kg/injection, schedule: Q01DX Z (oral), vehicle: saline 114 % of control | dose: 250.0 mg/kg/injection, schedule: Q01DX Z (oral), vehicle: saline 91 % of control

C=CCSCC(=O)Cl
inactive: [10] 102 % of control | [11] 100 % of control | [12] 110 % of control | [13] 95 % of control

CC1(C)CN=C(SC(=O)c2ccc([N+](=O)[O-])cc2)S1
inactive: dose: 100.0 mg/kg/injection, schedule: Q04DX002 (ip), vehicle: gum acacia 100 % of control | dose: 200.0 mg/kg/injection, schedule: Q04DX002 (ip), vehicle: gum acacia 93 % of control | dose: 400.0 mg/kg/injection, schedule: Q04DX002 (ip), vehicle: gum acacia 93 % of control

Nc1nc(N)c2nc(NCc3ccc(C(=O)NC(CCC(=O)O)C(=O)O)cc3)cnc2n1 (stereo not drawn)
inactive: [14] 100 % of control | [12] 117 % of control | [13] 103 % of control and 105 % of control | [15] 105 % of control | [16] 117 % of control | dose: 200.0 mg/kg/injection, schedule: Q04DX002 (ip), vehicle: saline 103 % of control and 107 % of control | [17] 96 % of control | dose: 400.0 mg/kg/injection, schedule: Q04DX002 (ip), vehicle: saline 107 % of control and 113 % of control

C#CC(O)(/C=C\Cl)CC (stereo not drawn)
inactive: dose: 12.5 mg/kg/injection, schedule: Q01DX009 (ip), vehicle: saline 102 % of control | [10] 93 % of control | dose: 25.0 mg/kg/injection, schedule: Q04DX003 (ip), vehicle: saline 101 % of control | [11] 94 % of control | dose: 50.0 mg/kg/injection, schedule: Q04DX003 (ip), vehicle: saline 95 % of control | [12] 86 % of control | [18] 97 % of control | [19] 106 % of control

NC(=O)c1ncc(-c2ccccc2)[nH]c1=O
inactive: [12] 105 % of control | [16] 92 % of control

CCOC(=O)c1csc(C)n1
inactive: [12] 103 % of control | [18] 99 % of control | [16] 102 % of control | [19] 96 % of control | dose: 400.0 mg/kg/injection, schedule: Q01DX009 (ip), vehicle: saline 109 % of control | dose: 400.0 mg/kg/injection, schedule: Q04DX003 (ip), vehicle: saline 92 % of control

O=C(O)c1ccc(Br)cc1.[Ni]
inactive: dose: 25.0 mg/kg/injection, schedule: Q04DX002 (ip), vehicle: gum acacia 100 % of control | dose: 50.0 mg/kg/injection, schedule: Q04DX002 (ip), vehicle: gum acacia 101 % of control

CCOC(=O)CNc1cc(N)ncn1
inactive: [11] 105 % of control | [12] 112 % of control

Cc1ccc2c(C)nc(N=C(N)N)nc2c1
inactive: dose: 18.8 mg/kg/injection, schedule: Q04DX003 (ip), vehicle: saline 96 % of control | dose: 37.5 mg/kg/injection, schedule: Q04DX003 (ip), vehicle: saline 100 % of control | dose: 75.0 mg/kg/injection, schedule: Q01DX001 (ip), vehicle: saline 103 % of control | dose: 75.0 mg/kg/injection, schedule: Q04DX003 (ip), vehicle: saline 97 % of control

CC(C)(C)c1ccc(OC(=S)N2CCOCC2)cc1
inactive: [3] 98 % of control | [7] 96 % of control | [20] 107 % of control | [8] 96 % of control | [21] 102 % of control | [9] 93 % of control

CCOC(=O)c1cc(Cl)c2ccccc2n1
inactive: [14] 96 % of control | [15] 98 % of control | [17] 96 % of control

O=C1C=CC(=Nc2ccccc2Cl)O1
inactive: [3] 95 % of control | [20] 93 % of control | [21] 94 % of control

Cn1[nH]c(=O)c2ccccc2c1=O
inactive: dose: 8.2 mg/kg/injection, schedule: Q04DX003 (ip), vehicle: Klucel (hydroxypropylcellulose) (HPC) 104 % of control | dose: 12.5 mg/kg/injection, schedule: Q04DX003 (ip), vehicle: Klucel (hydroxypropylcellulose) (HPC) 109 % of control and 120 % of control | dose: 18.0 mg/kg/injection, schedule: Q04DX003 (ip), vehicle: Klucel (hydroxypropylcellulose) (HPC) 108 % of control | dose: 25.0 mg/kg/injection, schedule: Q04DX003 (ip), vehicle: Klucel (hydroxypropylcellulose) (HPC) 97 % of control | dose: 50.0 mg/kg/injection, schedule: Q04DX003 (ip), vehicle: Klucel (hydroxypropylcellulose) (HPC) 110 % of control | dose: 100.0 mg/kg/injection, schedule: Q04DX003 (ip), vehicle: Klucel (hydroxypropylcellulose) (HPC) 106 % of control | dose: 200.0 mg/kg/injection, schedule: Q04DX003 (ip), vehicle: Klucel (hydroxypropylcellulose) (HPC) 106 % of control | dose: 400.0 mg/kg/injection, schedule: Q04DX003 (ip), vehicle: Klucel (hydroxypropylcellulose) (HPC) 103 % of control
